Experiments:
[1] = Cell death assay (WST-8) in HeLa cells; format: cell-based, human; conditions: human, HeLa cells (cervical cancer); 72 h, WST-8; read-out: cytotoxicity IC50 against HeLa cells
Procedure: (§1) Human cancer cell lines HeLa (cervical cancer), MIA PaCa-2 (pancreatic cancer), A431 (epidermoid carcinoma), and human embryonic kidney derived cell line HEK293T were cultured in Dulbecco’s Modified Eagle’s Medium (DMEM; Invitrogen) containing 10% fetal bovine serum (FBS), penicillin G (50 units/mL) and streptomycin (50 µg/mL). Human cancer cell lines Panc-1 (pancreatic cancer) and Jurkat (T cell lymphoma) were cultured in RPMI (Gibco) containing 10% FBS, penicillin G (50 units/mL) and streptomycin (50 µg/mL). Human osteosarcoma cell line MG-63, mouse embryonic fibroblast NIH3T3 cells and its transformant NIH3T3/KRAS cells1 were cultured in DMEM (Sigma-Aldrich) containing 10% calf serum, glutamine (0.3 g/L), penicillin G (50 units/mL), and streptomycin (50 µg/mL). All cell lines were incubated at 37 °C in a humidified atmosphere containing 5% CO2.
(§2) The cells were seeded in 96-well plates, cultured overnight, and treated with test compounds for the indicated time. Subsequently, cell viability was measured by the WST-8 assay, using Cell Count Reagent SF (Nacalai Tesque) according to the manufacturer ’s instructions, with the measurement of absorbance set at 450 nm on the ARVO SX 1420 Multilabel Counter (Wallac). […]

porcine tubulin = molecular target: T1, porcine tubulin (Sus scrofa, UniProt P02550+P02554); test: In vitro tubulin polymerization assay; format: biochemical; conditions: even at 300 μM
T1 construct: purchased Cytoskeleton
T1 sequence (P02550 whole entry): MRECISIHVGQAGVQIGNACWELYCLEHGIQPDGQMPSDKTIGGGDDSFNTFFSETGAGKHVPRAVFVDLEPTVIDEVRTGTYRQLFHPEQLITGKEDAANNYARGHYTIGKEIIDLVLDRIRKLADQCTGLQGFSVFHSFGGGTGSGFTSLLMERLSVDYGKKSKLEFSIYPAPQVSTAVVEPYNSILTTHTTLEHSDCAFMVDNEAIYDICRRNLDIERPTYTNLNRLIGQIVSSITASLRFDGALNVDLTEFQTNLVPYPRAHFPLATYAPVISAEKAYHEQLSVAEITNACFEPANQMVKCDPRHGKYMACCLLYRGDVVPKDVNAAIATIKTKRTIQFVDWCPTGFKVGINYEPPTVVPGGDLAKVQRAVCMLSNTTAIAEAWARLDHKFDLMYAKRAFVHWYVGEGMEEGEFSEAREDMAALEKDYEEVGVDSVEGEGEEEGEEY
T1 sequence (P02554 whole entry): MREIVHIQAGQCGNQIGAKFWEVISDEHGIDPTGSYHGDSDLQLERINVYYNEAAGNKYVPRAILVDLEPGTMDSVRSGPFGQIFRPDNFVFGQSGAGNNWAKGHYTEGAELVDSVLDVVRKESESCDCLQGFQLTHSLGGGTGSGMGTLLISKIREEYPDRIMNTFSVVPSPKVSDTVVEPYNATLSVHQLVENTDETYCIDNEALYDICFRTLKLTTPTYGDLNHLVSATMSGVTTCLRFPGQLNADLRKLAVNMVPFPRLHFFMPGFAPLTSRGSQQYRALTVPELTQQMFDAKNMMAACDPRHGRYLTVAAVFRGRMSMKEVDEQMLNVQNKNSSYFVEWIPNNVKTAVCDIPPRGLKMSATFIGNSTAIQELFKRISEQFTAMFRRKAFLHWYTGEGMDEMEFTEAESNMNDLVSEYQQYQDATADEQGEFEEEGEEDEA
Procedure: In vitro tubulin polymerization assay was performed using a tubulin polymerization assay kit (Cytoskeleton) according to the manufacturer’s instructions. Briefly, lyophilized porcine tubulin was solubilized to a final concentration of 2 mg/mL in reaction buffer containing 80 mM piperazine-N,N′-bis(2-ethanesulfonic acid) (PIPES; pH 6.9), 2 mM MgCl2, 0.5 mM ethylene glycol tetraacetic acid (EGTA), 1 mM guanosine-5′-triphosphate (GTP), 10 μM fluorescent reporter, and 20% glycerol, and kept at 4 °C. Compounds (100 × DMSO stock solutions) were added to prewarmed half-area 96-well black plates. Cold tubulin solution was added to the wells. The plate contents were mixed by shaking, and fluorescence (Ex 350 nm, Em 435 nm) was read every minute for 1 h using a fluorescence microplate reader (Molecular Devices).

[2] = test system: nuclear 53BP1 foci in HeLa cells; test: 53BP1 foci immunofluorescence (DNA damage); format: cell-based, human; conditions: 24 h, only at the higher concentrations (100-300 μM)
Procedure: For 53BP1, test compound–treated HeLa cells were fixed in 3% formalin in PBS containing 0.1% Triton X-100 for 15 min and permeabilized in 0.5% Triton X-100 for 5 min. After blocking with 10% FBS and 0.1% Triton X-100 in PBS for 1 h, cells were incubated sequentially with a primary antibody against 53BP1 (1:600, sc-22760; Santa Cruz Biotechnology) in blocking solution at 37 °C for 1 h and with Alexa Fluor 568-conjugated secondary antibody (1:400, Life Technologies) under the same condition.
After a quick rinse in PBS, DNA was counterstained with 0.5 µg/mL Hoechst 33342 (Sigma-Aldrich) in PBS at room temperature for 10 min. Images were analyzed on a fluorescence microscope (Delta Vision). […]

[3] = test system: PANC-1, MIA PaCa-2, A431, Jurkat, MG-63, NIH3T3 and NIH3T3/KRAS cells; format: cell-based; conditions: 72 or 96 h, WST-8
Procedure: as §1, §2

SMILES	IC50 at 72 h [1] [µM]	effect on tubulin polymerization in vitro (porcine tubulin)	DNA damage (nuclear 53BP1 foci formation) [2]	cytotoxicity against cancer cell lines and KRAS-transformed fibroblast cells [3]
CC1(C)CC2CC(C)(CN2c2ncnc3[nH]cnc23)C1 (centres unmarked) [NPD7155]	65	did not affect tubulin polymerization	increased nuclear 53BP1 foci formation	less potent cytotoxicity
Nc1nc(NCCc2ccccc2)c2nc[nH]c2n1 [NPD9948]	35	did not affect tubulin polymerization	increased nuclear 53BP1 foci formation	less potent cytotoxicity
